Data published in ChEMBL document CHEMBL1201862, “PubChem BioAssay data set” (2004).
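Cells were grown in 96-well plates and exposed to each compound for 48 hours at five concentrations; endpoints were interpolated linearly between bracketing concentrations, or set to the highest concentration if not reached. Abbreviation: GI50, concentration required for 50% inhibition of growth.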 Calls of active or inactive are those of the source. Rule as the data show it: active = GI50 up to about 1.1 µM and inactive = higher.

What was measured:
Assay in all cases: DTP human tumour cell line panel, 48 h
[1] = test system: A498
[2] = test system: CCRF-CEM
[3] = test system: HT-29
[4] = test system: KM12
[5] = test system: M14
[6] = test system: Malme-3M
[7] = test system: NCI-H226
[8] = test system: OVCAR-4
[9] = test system: SF-268
[10] = test system: SF-295
[11] = test system: SN12C
[12] = test system: SNB-19
[13] = test system: SW-620
[14] = test system: U-251
[15] = test system: UO-31
[16] = test system: IGROV-1
[17] = test system: SK-OV-3

Measured: GI50

CSCSCC(CO)NC(=O)/C=C/c1c(C)nc(O)nc1O (stereo not given)
inactive: [1] > 100 µM | [2] 44.4 µM | [3] > 100 µM | [4] > 100 µM | [5] > 100 µM | [6] > 100 µM | [7] > 100 µM | [8] 37 µM | [9] 30.8 µM | [10] > 100 µM | [11] > 100 µM | [12] 28.8 µM | [13] > 100 µM | [14] 64.3 µM | [15] > 100 µM

Cc1c(C(=O)NCCO)[n+]([O-])c2cc(Cl)ccc2[n+]1[O-]
inactive: [1] > 100 µM | [2] > 100 µM | [3] > 100 µM | [16] > 100 µM | [4] > 100 µM | [5] > 100 µM | [6] > 100 µM | [8] > 100 µM | [9] > 100 µM | [10] > 100 µM | [17] 86.9 µM | [11] > 100 µM | [12] > 100 µM | [13] > 100 µM | [14] > 100 µM | [15] > 100 µM

COc1ccc(C(=O)C(c2ccc(OC)cc2)C2(O)C(=O)Nc3c(Cl)cc(Cl)cc32)cc1 (stereo not given)
inactive: [2] 15.6 µM | [3] 19.4 µM | [4] 17.8 µM | [5] 16.9 µM | [6] 15.5 µM | [7] 18.4 µM | [8] 6.34 µM | [9] 33.8 µM | [10] 19.3 µM | [17] 50.7 µM | [11] 18.7 µM | [12] 23.8 µM | [13] 17.6 µM | [14] 33.1 µM | [15] 27.7 µM

CCOC(=O)c1ncn2c1[nH]c(=O)c1ccccc12
inactive: [2] > 100 µM | [3] > 100 µM | [16] > 100 µM | [4] > 100 µM | [5] > 100 µM | [6] > 100 µM | [7] > 100 µM | [8] > 100 µM | [9] > 100 µM | [10] > 100 µM | [11] > 100 µM | [12] > 100 µM | [13] > 100 µM | [14] > 100 µM | [15] > 100 µM

O=C1C=C(c2c(O)ccc3ccccc23)c2cc(O)ccc2C1=O
inactive: [3] 25.3 µM | [16] 13.7 µM | [4] 16.1 µM | [5] 16.4 µM | [6] 19.2 µM | [7] 20.9 µM | [8] 11.1 µM | [9] 16.3 µM | [10] 18.5 µM | [17] 23.5 µM | [11] 18.2 µM | [12] 17.5 µM | [13] 18.2 µM | [14] 14.8 µM | [15] 19.6 µM

CC1=C(C(=O)Nc2ccccc2)C(c2ccc([N+](=O)[O-])cc2)C(C(=O)Nc2ccccc2)=C(C)N1
inactive: [1] 26.2 µM | [2] 10.3 µM | [3] 18.2 µM | [16] 28.6 µM | [4] 15.8 µM | [5] 18.1 µM | [6] 34.2 µM | [7] 59.6 µM | [9] 22.6 µM | [10] 22.4 µM | [11] 30.5 µM | [12] 10.4 µM | [13] 15.2 µM | [14] 17.4 µM | [15] 22.4 µM

Cc1cc2c(cc1C)[n+]([O-])c(-c1c(Cl)cccc1Cl)c(N)[n+]2[O-]
inactive: [1] 26.2 µM | [3] 39.6 µM | [16] 41.3 µM | [4] 37.2 µM | [5] 33 µM | [6] 31.1 µM | [7] 23.9 µM | [8] 39 µM | [9] 32.9 µM | [10] 42.5 µM | [17] 66.4 µM | [11] 50.9 µM | [12] 25.5 µM | [13] 35.1 µM | [14] 33.3 µM | [15] 30.3 µM

O=C1OC(CC(=O)c2ccccc2Cl)C(Cl)=C1Cl (stereo not given)
inactive: [2] 48.3 µM | [3] > 100 µM | [16] > 100 µM | [4] > 100 µM | [5] > 100 µM | [6] > 100 µM | [7] > 100 µM | [8] > 100 µM | [9] > 100 µM | [10] > 100 µM | [17] > 100 µM | [11] > 100 µM | [12] > 100 µM | [13] > 100 µM | [14] > 100 µM | [15] > 100 µM

CS/C(=N\C(=S)Nc1ccccc1)Nc1ccccc1
inactive: [1] 21.9 µM | [3] 6.37 µM | [16] 16.4 µM | [4] 25.6 µM | [5] 21.4 µM | [6] 15.2 µM | [7] 18.5 µM | [8] 26.3 µM | [9] 25.6 µM | [10] 21.5 µM | [17] 27 µM | [11] 18.3 µM | [12] 21.7 µM | [13] 23.1 µM | [14] 19.8 µM | [15] 11.6 µM

CCN(CC)CC(C(=O)Nc1c(C)cccc1C)/C(C)=N/NC(N)=S (stereo not given)
inactive: [1] > 100 µM | [2] > 100 µM | [3] > 100 µM | [16] > 100 µM | [4] > 100 µM | [5] > 100 µM | [6] > 100 µM | [7] > 100 µM | [9] > 100 µM | [10] > 100 µM | [17] > 100 µM | [13] > 100 µM | [14] > 100 µM | [15] > 100 µM

Cc1nc2c(n1CC(C)C)C(=O)c1ccccc1C2=O
inactive: [2] 38.2 µM | [3] 34 µM | [16] 32.6 µM | [4] 37.9 µM | [5] 61.7 µM | [6] 20.6 µM | [7] > 100 µM | [8] 43.4 µM | [9] 42.8 µM | [10] 39.2 µM | [17] 62.4 µM | [11] 37.1 µM | [12] 51.5 µM | [13] 41.1 µM | [14] 38.6 µM | [15] 26.5 µM

CCOC(=O)NC(=O)c1cn(CCN2CCN(C(=O)NCCCCCCNC(=O)N3CCN(CCn4cc(C(=O)NC(=O)OCC)c(=O)[nH]c4=O)CC3)CC2)c(=O)[nH]c1=O
inactive: [1] > 100 µM | [3] > 100 µM | [16] > 100 µM | [4] > 100 µM | [5] > 100 µM | [6] > 100 µM | [8] > 100 µM | [9] > 100 µM | [10] > 100 µM | [17] > 100 µM | [11] > 100 µM | [12] > 100 µM | [13] > 100 µM | [14] > 100 µM | [15] > 100 µM

O=C1OC(=O)C2C3CCC(O3)C12 (stereo not given)
inactive: [1] > 100 µM | [2] > 100 µM | [3] > 100 µM | [16] > 100 µM | [4] > 100 µM | [5] > 100 µM | [6] > 100 µM | [7] > 100 µM | [9] > 100 µM | [10] > 100 µM | [17] > 100 µM | [11] > 100 µM | [12] > 100 µM | [13] > 100 µM | [14] > 100 µM | [15] > 100 µM
